From US20240131032A1, “AN ACTIVITY-GUIDED MAP OF ELECTROPHILE-CYSTEINE INTERACTIONS IN PRIMARY HUMAN IMMUNE CELLS” (The Scripps Research Institute, priority 2019, published 2024)

How the values were obtained:
[1] = system: CRISPR/Cas9-edited primary human T cells; experiment: T cell activation after CRISPR/Cas9 target disruption plus compound (FACS CD25/CD69); type: cell-based
Protocol: DNA templates consisting of a T7 RNA Polymerase promoter, the ˜20 nt target-specific sequence, and the chimeric sgRNA scaffold were generated for each desired target by overlapping PCR using Q5 High Fidelity Master Mix (New England Biolabs) under the following conditions: 98° C. for 2 min; 50° C. for 10 min; 72° C. for 10 min. Guide RNA templates were used to transcribe guide RNAs using the HiScribe T7 High Yield RNA Synthesis kit (New England Biolabs) according to the manufacturer's instructions. Following in vitro transcription, guides were purified using Monarch RNA Cleanup Kit (New England Biolabs) following manufacturer's instructions.
The Cas9 RNPs were assembled before transfection using the ArciTect™ Cas9-eGFP Nuclease (StemCell) with the T7 transcribed RNAs at a molar ratio of 1:3 in Buffer T. For each target of interest, the genome was tiled with 3 unique guide RNAs. Before the transfection, primary T cells were preactivated on αCD3/αCD28-precoated plates in complete RPMI medium supplemented with 100 U/mL IL2 for 48 h. The T cells were then washed with PBS and resuspended in Buffer T (10×10^6 cells/mL) and the Cas9 RNP transfections were performed using the Neon Transfection system (ThermoFisher). Following the Cas9 RNP transfection, T cells were cultured in RPMI supplemented with 50 U/mL IL2 for 7 days. […]

NuRD complex = experiment: Expression-based proteomics (TMT-exp) of compound-treated T cells, NuRD complex; type: cell-based, human; conditions: BPK-25 10 μM, 24 h; for decrease in GATAD2B, MBD2, MBD3, and MTA2 (NuRD complex proteins): BPK-21 20 μM, EV-3 10 μM, DMF 50 μM
Protocol: FIG. 7B is a scatter plot representation of protein abundance changes caused by BPK-25 (10 μM, 24 h) in two independent replicate experiments, with decreases in NuRD complex components highlighted in red. FIG. 7C is a heatmap of top proteins with decreased abundance in BPK-25-treated T cells showing that the subset of these proteins in the NuRD complex (asterisks) were largely unaltered by other active compounds and blocked in their degradation by co-treatment with the proteasome inhibitor MG132. […] FIG. 7E is a bar graph […] showing time-dependent reductions in NuRD complex members in human T cells treated with BPK-25 (10 μM). Left, representative western blots. Right, quantification of changes in protein. […] FIG. 7G is a heat map showing the changes in cysteine reactivity for NuRD complex members in human T cells treated with BPK-25 and other active compounds.
Freshly isolated T cells (1.6×10^7 cells, 2×10^6 cells/mL in RPMI media) were treated with compound or DMSO for 24 h, pelleted (600 g, 5 min), and washed with PBS (1×10 mL). The cells were then transferred to an Eppendorf tube in additional PBS (1 mL), pelleted (600 g, 5 min), flash frozen, and kept at −80° C. until further analysis. On the first day of the whole proteome TMT protocol, the cells were thawed on ice and lysed in lysis buffer (150 μL, 1 tablet of Roche complete, mini, EDTA-free Protease Inhibitor Cocktail dissolved in 10 mL of PBS) using a probe sonicator (2×8 pulses). Protein concentration was adjusted to 2.0 mg/mL and the samples (100 μL) were transferred to new Eppendorf tubes (1.5 mL) containing urea (48 mg/tube, final urea concentration: 8 M). DTT (5 μL, 200 mM fresh stock in H2O, final DTT concentration: 10 mM) was then added to the tubes and the samples were incubated at 65° C. for 15 min. Following this incubation, iodoacetamide (5 μL, 400 mM fresh stock in H2O, final IA concentration: 20 mM) was added and the samples were incubated in the dark at 37° C. with shaking for 30 min. Ice-cold MeOH (600 μL), CHCl3 (200 μL), and H2O (500 μL) were then added, the mixture was vortexed and centrifuged (10,000 g, 10 min, 4° C.) to afford a protein disc at the interface of CHCl3 and aqueous layers. The top layer was aspirated without perturbing the disk, additional MeOH (600 μL) was added and the proteins were pelleted (10,000 g, 10 min, 4° C.) and used in the next step or stored at −80° C. overnight.
The resulting protein pellets were resuspended in EPPS buffer (160 μL, 200 mM, pH 8) using a probe sonicator (2×6 pulses). […]
The sample became clear after the overnight digestion. At this point, peptide concentration was determined using microBCA assay (Thermo Scientific) according to manufacturer's instructions. […]

With `O=C(CCl)N1CCN(S(=O)(=O)c2ccc(-c3ccncc3)cc2)CC1` [EV-3] the “T cell activation in BIRC2/BIRC3-null cells” value ([1]; CRISPR/Cas-9 disruption of BIRC2 and BIRC3) was “further decreased T cell activation”.

With `C=CC(=O)N(Cc1cccc(Cl)n1)c1ccc(C(=O)Nc2ccccc2)nc1` [BPK-25] the “reduced abundance of additional NuRD complex members” value (NuRD complex) was 25-50% and the “decrease in GATAD2B, MBD2, MBD3, and MTA2 (NuRD complex proteins)” value (NuRD complex) was over 50%.

For `COC(=O)/C=C/C(=O)OC` [DMF, reference compound], the “decrease in GATAD2B, MBD2, MBD3, and MTA2 (NuRD complex proteins)” value (NuRD complex) was “not leading to NuRD complex degradation”.

`C=CC(=O)N(Cc1cccc(Cl)c1Cl)c1ccc(Oc2ccccc2)c(C(F)(F)F)c1` [BPK-21] was tested, and the “T cell activation in sgERCC3 cells” value ([1]; CRISPR/Cas9 disruption of ERCC3) was “only a modest further reduction in activation”.
